# Experimental data as given in EP0564466B1, “LHRH-ANTAGONISTS” (ASTA Medica Aktiengesellschaft, priority 1990, dated 1992).
# Non-standard residues stand in square brackets, D forms with d. Residues, ends and D or L forms follow the SMILES beside them. dPhe(4-Cl) = N[C@H](Cc1ccc(Cl)cc1)C(=O)O; d2Nal = N[C@H](Cc1ccc2ccccc2c1)C(=O)O; d3Pal = N[C@H](Cc1cccnc1)C(=O)O
# Assays:
# rat ovulation = assay: Corbin's rat antiovulation method (antiovulatory activity, AOA); format: in vivo, SD rats; details: for % AOA/µg 0.25: 0.25 µg; for % AOA/µg 0.25 / % AOA/µg 0.5 / % AOA/µg 1.0: in saline, given at noon of proestrus, female SD rats; for % AOA/µg 0.5: 0.5 µg; for % AOA/µg 1.0: 1.0 µg
# Experimental: Corbin's rat antiovulatlon method is used. The healthy, adult, female SD rats (BW 200-250 g) are used in this experiment. All animals are maintained at 22-24 °C and on 14 h/10 h (light/dark) schedule. They are given standard food, and water ad libitum. The rats showing at least two consecutive 4-day estrous cycles in vaginal smear examination can be used in this experiment. […] The rats are sacrificed next day, their oviduct of two sides are examed under a dissecting microscope to determine the ovum number. The rats were divided into several groups according to the dosing, each group consists of about 10 rats, and the control group in which the rats are given equal amount of saline consists of 9-10 rats. The antiovulatory activity (AOA) is shown in the following equation: AOA=(number of unovulated rats)/(Total number of treated rats)X 100 % [formula]
# rat mast cell [1] = assay: Histamine releasing test (HRT) in vitro; format: cell-based, SD rats; details: in vitro histamine release from rat peritoneal mast cells, 15 min at 37 °C
# Experimental: The healthy, adult, male SD rats (BW 200-250 g) housing in the above same conditions are used in this experiment. After anesthetized by CO2 the peritoneal cavity is washed with 50 ml of PIPES AC medium containing 20 units of heparin. Following centrifugation at 200xg for 8 min at 4 °C, cells are washed again and finally resuspended to a concentration of 8 to 24x10^5 total leucocyted/ml in PIPAS AC. This suspension contains approximately 5-10 % mast cells. Washed cells are used immediately after collection and are prewarmed for 5 min at 37 °C prior to pipetting 0,3 ml aliquots into polystyrene tubes containing 0,3 ml of diluted peptide. The mixtures are incubated for 15 min at 37 °C and the reaction stopped by centrifugation at 400 xg for 15 min at 4 °C. The supernatans are assayed for histamine content by manual fluorometric assay method after successively extraction with n-butanol and n-heptane. The histamine content can be obtained from the histamine standard curve (see below). The percentage of histamine release can be calculted from the following equation: Histamine release(%)=(E-B)/(C-B)X 100 % [formula] where E is the fluorometric reading of experimental sample, B is the fluorometric reading of samples with cells and buffer only, and C ist the fluorometric reading of "complete" (cells treated with HCIO4).
# The standard curve can be obtained by plotting the OD values on a fluorometer at 350 nm/450 nm (activation/fluorescent) against the concentrations of serially diluted solution of accurately weighted histamine hydrochloride. The relative parameter r of the histamine standard curve can be 0.9998, and the lowest detectable concentration of histamine is 0,5 ng/ml.
# The ED50 value of peptide can be gotten from the dose response curves obtained by plotting the histamine release versus the peptide concentration on semilogarithmic paper.
# All peptide samples should be tested with mast cells from a minimum of 3 different rats.
# rat mast cell [2] = details: neuropeptide substance P; cited from earlier work
compound,measurement,setting,value
"CC(=O)N[C@H](Cc1ccc2ccccc2c1)C(=O)N[C@H](Cc1ccc(Cl)cc1)C(=O)N[C@H](Cc1cccnc1)C(=O)N[C@@H](CO)C(=O)N[C@@H](CCCNC(=N)N)C(=O)N[C@H](Cc1cccnc1)C(=O)N[C@@H](CC(C)C)C(=O)N[C@@H](CCCNC(=N)N)C(=O)N1CCC[C@H]1C(=O)N[C@H](C)C(N)=O [compound 1, [NAc-D2Nal^1, DpClphe^2, D3Pal^3, Ser^4, Arg^5, D3Pal^6, Leu^7, Arg^8, Pro^9, DAla^10]NH2] (Ac-[d2Nal][dPhe(4-Cl)][d3Pal]SR[d3Pal]LRP[dA]-NH2)",AOA,"rat ovulation; 0,5 µg, corn oil",100%
same,AOA,"rat ovulation; 0,12 µg, corn oil",60%
same,AOA,"rat ovulation; 0,25 µg, corn oil",85%
same,% AOA/µg 0.25,rat ovulation,50%
same,% AOA/µg 0.5,rat ovulation,75%
same,% AOA/µg 1.0,rat ovulation,100%
same,ED50 for AOA,rat ovulation; corn oil,"≤ 0,125 µg"
same,HRA (µg/ml) ED50 ± SEM,rat mast cell [1],3.5 ± 0.38 µg/mL
same,HRA (µg/ml) ED50 ± SEM,rat mast cell [1]; listed as IV,"3,5 µg/ml"
"CC(=O)N[C@H](Cc1ccc2ccccc2c1)C(=O)N[C@H](Cc1ccc(Cl)cc1)C(=O)N[C@H](Cc1ccccc1)C(=O)N[C@@H](CO)C(=O)N[C@@H](CCCNC(=N)N)C(=O)N[C@H](Cc1cccnc1)C(=O)N[C@@H](CC(C)C)C(=O)N[C@@H](CCCNC(=N)N)C(=O)N1CCC[C@H]1C(=O)N[C@H](C)C(N)=O [compound 2, [NAc-D2Nal^1, DpClPhe^2, DPhe^3, Ser^4, Arg^5, D3Pal^6, Leu^7, Arg^8, Pro^9, DAla^10]NH2] (Ac-[d2Nal][dPhe(4-Cl)][dF]SR[d3Pal]LRP[dA]-NH2)",% AOA/µg 0.25,rat ovulation,29%
same,% AOA/µg 0.5,rat ovulation,60%
same,% AOA/µg 1.0,rat ovulation,100%
same,HRA (µg/ml) ED50 ± SEM,rat mast cell [1],7.4 ± 0.98 µg/mL
"[Arg^1, Pro^2, Lys^3, Pro^4, Gln^5, Gln^6 Phe^7, Phe^8, Gly^9, Leu^10, Met^11]NH2 [substance P]",ED50 for HRA,rat mast cell [2],5 to 15 µM
"[NAc-D2Nal^1, DpClPhe^2, D3Pal^3 Ser4, Tyr5, D3Pal6, Leu7, Arg8, Pro9, DAla10]NH2 [III]",AOA,"rat ovulation; 1 µg, corn oil",83%
same,AOA,"rat ovulation; 3 µg, corn oil",100%
same,HRA (µg/ml) ED50 ± SEM,rat mast cell [1],9.8 µg/mL
"[NAc-D2Nal^1, DpClPhe^2, D3Pal^3, Ser^4, Tyr^5, DArg^6, Leu^7, Arg^8, Pro^9, DAla^10]NH2 [II, reference compound]",AOA,"rat ovulation; 0,5 µg, corn oil",100%
same,AOA,"rat ovulation; 0,25 µg, corn oil",57%
"[NAc-D2Nal^1, DpClPhe^2, DPhe^3, Ser^4, Tyr^5, D3Pal^6, Leu^7, Arg^8, Pro^9, DAla^10]NH2 [V']",% AOA/µg 1.0,rat ovulation,100%
same,HRA (µg/ml) ED50 ± SEM,rat mast cell [1],"7,4 µg/ml"
"[NAc-D2Nal^1, DpClphe^2, D3Pal^3, Ser^4, Mop^5, D3Pal^6, Leu^7, Arg^8, Pro^9, DAla^10]-NH2 [compound 13]",% AOA/µg 0.5,rat ovulation,25%
same,% AOA/µg 1.0,rat ovulation,100%
same,HRA (µg/ml) ED50 ± SEM,rat mast cell [1],14.7 ± 2.70 µg/mL
same,HRA (µg/ml) ED50 ± SEM,rat mast cell [1]; listed as VII,"14,7 µg/ml"
